Measurements from patent publication US7594984B2, “Apparatus and method for measuring activity signals of biological samples” (Panasonic Corporation, priority 2002, dated 2009).

Legend:
[1] = test system: nerve cells prepared from lymnaea; experiment: Extracellular recording before and after Carbachol administration; normal distribution of standard deviations (mean value, half-width); assay type: cell-based; conditions: 50-μM Carbachol
Excerpt: The normal distribution approximation unit 103 classifies a plurality of standard deviations obtained in the group SD calculation unit 102 into a plurality of classes set at predetermined widths. The classes are plotted on the X axis and the number of standard deviations classified into each class is plotted on the Y axis, to obtain a graph. The graph obtained is approximated to a normal distribution. Methods for approximating the graph to a normal distribution include, for example, various curve fitting analyses, such as exponential decrease, exponential increase, Gaussian, Lorentzian, Sigma, Multipeak and non-linear methods. The mean value/half-width calculation unit 106 calculates the mean value and half-width (the half-peak height width) of the normal distribution obtained.
The apparatus of the present embodiment thus configured was used to measure how the chemical substance Carbachol acts on nerve cells prepared from lymnaea. More specifically, the normal distribution approximation unit 103 produced a frequency distribution of the standard deviations on the basis of signals that were detected by the measurement unit 101 before and after Carbachol was administered to lymnaea nerve cells at 50-μM concentration. […]

[2] = test system: nerve cells prepared from lymnaea; experiment: Extracellular recording of nerve cell electrical signals at a series of Carbachol concentrations; mean value of standard deviations; assay type: cell-based; conditions: concentrations 0-100, SD sampled every 100 ms from 10-second data, FIG. 10
Excerpt: FIG. 9 is a block diagram schematically illustrating a configuration of the apparatus for measuring the activity signals of biological samples according to Embodiment 3. The apparatus employs the apparatus of Embodiment 1 as a measurement unit (a signal source) 101, and has a function for processing electrical signals detected by the measurement unit 101. As shown in FIG. 9(A), the apparatus is provided with a group SD (standard deviation) calculation unit 102, a mean value calculation unit 105, an activation evaluation unit 120 and a data display unit 110. According to the group SD calculation unit 102, the standard deviation of one group consisting of a predetermined number of samples is calculated on the basis of time-series data detected by the measurement unit 101. […] According to the mean value calculation unit 105, the mean value of the obtained plurality of standard deviations is calculated. […] Therefore, according to the activation calculation unit 120, activation can be calculated based on the input information and can be classified by comparison with pre-stored information. […] According to the apparatus, noise can be removed from digital signals (predetermined time-series data) captured at a fixed sampling rate, and then significant signals showing, for example, the opening and closing of ion channels can be extracted, measured and classified. […]

C[N+](C)(C)CCOC(N)=O [Carbachol]
effect on ion channels of the nerve cells ([1]; lymnaea nerve cells): activates the ion channels | mean value of the normal distribution of standard deviations after administration ([1]; SD every 5 ms from 10-second signals, before administration 0.478, FIG. 12): 0.703 | Carbachol concentration at which the mean value of the standard deviations reaches its peak [2]: 10 µM
